Results: paper PMC9376946, “Peptide-RNA Coacervates as a Cradle for the Evolution of Folded Domains” (Journal of the American Chemical Society, 2022)
“And” between values parts separate entries of the source, which are not always exact repeats. Equal values may be shown once.

Tested on: polyU
Assay: DEER of peptides in the presence of polyU
Assay type: binding
Settings: for local concentration of detected spins: from DEER background decay, calibration curve
Method: For pulse EPR measurements, 5–6 μL of peptide in D2O with 20% glycerol-d8 was introduced into a quartz capillary of 0.9 mm i.d. and 1.1 mm o.d. and sealed with Critoseal at one end. The samples with polyU (and thus, the potential for coacervates) were flash-frozen in liquid nitrogen after incubating at room temperature for 15–20 min. Samples without polyU were directly inserted into the spectrometer at 25 K.
Pulse EPR measurements were carried out at the W band (94.9 GHz) on a home-built spectrometer at 25 K.[22]−[24] Echo intensities were measured with a Hahn echo sequence (π/2νobs – τ – πνobs – τ – echo) using π/2 and π pulses of 20–25 ns and 40–50 ns, respectively, and τ = 500 ns. Echo decays were measured under the same conditions with an initial τ value of 500 ns. DEER measurements were recorded using the four-pulse DEER sequence (π/2νobs – τ1 – πνobs – (τ1 + t) – πνpump – (τ2-t) – πνobs – τ2 – echo)[25],[26] with a chirp pump pulse[23] using eight-step phase cycling and monitoring the echo intensity as a function of increasing t. The maximum intensity of the nitroxide spectrum was set to 94.9 GHz, the observer pulses were set to 94.85 GHz, and the π/2 and π pulse durations were 35–40 and 70–80 ns. The chirp pump pulse frequency was 94.88–94.98 GHz with a duration of 128 ns. The repetition time was 10 ms. The samples without polyU and a concentration above 50 μM were averaged for 1–5 h. All the samples with a concentration ≤50 μM and all the samples in the presence of polyU were averaged for 6–14 h. The DEER data were analyzed using the DeerAnalysis 2018[27] program with Tikhonov regularization[28] and also verified with DEERNet.[29] For DeerAnalysis, the background was fitted with a homogenous three-dimensional distribution. The calculated distance distributions were obtained from mtsslSuite[30] using maleimide TEMPO (M-TEMPO) as the ligand, and 200 rotamer conformations were generated using clash treatment set to “loose”.
We carried out DEER measurements on the series of samples with 150 μM PA-12 and varying amounts of polyU (Figure 5A). DEER traces were analyzed in terms of several parameters: (i) the modulation depth, Δ, which gives information about the amount of dimers present; (ii) the slope of the background decay, which gives information on the average local concentration of the observed spins;[36],[40] and (iii) the SNR, which indicates how many spins were observed. […] The decrease in the background decay slope and SNR are consistent with the observed reduction in echo intensity (Figure 4A). We therefore conclude that the observed DEER modulation arose from the unbound PA-12 dimers, whereas the polyU-bound PA-12 could not be detected, as discussed in the description of the echo decays. As the polyU concentration increases, the PA-12 concentration in the dispersed phase decreases and therefore the dimer population decreases as well (eq 1), ultimately resulting in the disappearance of the modulation at about 0.5 mg/mL polyU.
We summarized our experimental observations in Figure 5B, where we plot the decrease degree (in %) in the background decay, the echo intensity, and the modulation depth as a function of polyU concentration. For all parameters, the graphs show a similar linear behavior in the high PA/polyU regime below 0.5 mg/mL polyU. […] At 0.5 mg/mL polyU, an inflection point is detected: Above 0.5 mg/mL polyU, population II reaches a plateau and we have a small gain in echo intensity and background decay, but a large gain in modulation depth. From this series of experiments, we conclude that PA bound to polyU has restricted motion and that dimers of PA exist also when bound to polyU within the coacervate. We determined the local concentration of the spins contributing to the DEER traces in the PA/polyU mixtures from a calibration curve generated from the background decay slopes of the DEER data of PA-12 in the absence of polyU (Figure S10D), and the results are given in Table 2. […]

RIRRASVEELTCVPGIGPRLARRILERLA [PA-12, Precursor-Arg peptide in which position 12 has been modified with a cysteine and attached to an M-TEMPO spin label]
maximum modulation depth corrected for free PA (30 μM PA-12, 1 mg/mL polyU, corrected for 40% component I): 9.5% | DEER modulation depth (Δ) with polyU (30 μM PA-12, 1 mg/mL polyU, local concentration 25 μM): 5.7% | DEER modulation depth with polyU (in words) (100 μM PA-12, 2 mg/mL polyU): higher modulation depth than the sample with 1 mg/mL polyU | DEER modulation with polyU (in words) (150 μM PA-12, 0.5 mg/mL polyU): modulation could no longer be detected | DEER modulation depth (Δ) with polyU (150 μM PA-12, 1 mg/mL polyU): 2% | DEER modulation with polyU (in words) (150 μM PA-12, 1 mg/mL polyU): modulation reappeared again | local concentration of detected spins (PA-12 30 μM / polyU 1 mg/mL): 25 µM and 25 ± 2 µM | local concentration of detected spins (PA-12 100 μM / polyU 1 mg/mL): 48 ± 4.5 µM | local concentration of detected spins (PA-12 100 μM / polyU 2 mg/mL): 53 ± 5 µM | local concentration of detected spins (PA-12 150 μM / polyU 0.1 mg/mL): 91 ± 8 µM | local concentration of detected spins (PA-12 150 μM / polyU 0.2 mg/mL): 75 ± 7 µM | local concentration of detected spins (PA-12 150 μM / polyU 0.35 mg/mL): 45 ± 4 µM | local concentration of detected spins (PA-12 150 μM / polyU 0.5 mg/mL): 2.3 µM and 2.3 ± 2 µM | local concentration of detected spins (PA-12 150 μM / polyU 1 mg/mL): 23 µM and 23 ± 2 µM
